Here are results for 2 compounds from PMC5729429, “Gimatecan exerts potent antitumor activity against gastric cancer in vitro and in vivo via AKT and MAPK signaling pathways” (Journal of Translational Medicine, 2017).

The test system of the assay is SNU-1 cells. Nature of the assay: Annexin V-PE/7-AAD apoptosis assay (flow cytometry), SNU-1. Type of assay: cell-based, human. Conditions: 24 h. On the procedure: Apoptosis was measured by staining with phycoerythrin (PE)-annexin V and 7-amino-actinomycin (7-AAD) (BD Biosciences, Erembodegem, Belgium) for 15 min at room temperature in the dark, followed by flow cytometry (BD Biosciences) within 1 h. Apoptosis was analyzed with FlowJo 7.6 software (FlowJo, LLC, Ashland, Oregon).
Cells were treated with gimatecan (0–1 µM) and irinotecan (0–1 µM) for 24 h and stained with Annexin V-PE/7-AAD. Sums of percentages of early apoptosis (Q3) and late apoptosis (Q2) were calculated as the total apoptosis ratios. c, d Pro- and anti-apoptotic proteins including Bcl-2, Bak, PARP and cleaved PARP were assessed by western-blotting in SNU-1 and NCI-N87 cells. Western-blotting bands were quantified and normalized by ImageJ. […] They are left out because no substance is present, and they are also barely readable.
In general terms: Flow cytometry measures light scatter and fluorescence of single cells or particles in a stream.

Molecules are shown by their SMILES. Counter-ions that a name gives are not always drawn.

In the case of `CC[C@@]1(O)C(=O)OCc2c1cc1n(c2=O)Cc2c-1nc1ccccc1c2/C=N/OC(C)(C)C` [Gimatecan, 7-t-butoxyiminomethylcamptothecin], the “proportion of apoptotic cells” value (SNU-1, 1000 nM) is given as 14.38 ± 2.11%.

Turning to `CCc1c2c(nc3ccc(OC(=O)N4CCC(N5CCCCC5)CC4)cc13)-c1cc3c(c(=O)n1C2)COC(=O)[C@]3(O)CC` [Irinotecan, irinotecan hydrochloride], the “apoptosis induced compared with controls” value (0–1 µM, stated generally for the GC cell lines tested) was “not obvious”.
